These results are taken from ChEMBL document CHEMBL1806426, “Simple but powerful: phenanthroline-based small molecules for cellular imaging and cancer screening” (Bioorg Med Chem Lett, 2011).

Each structure is given as a SMILES string.

As usually defined, the IC50 is the midpoint of a concentration-inhibition curve.

Data set [1] in a line: Cytotoxicity against human OE21 cells assessed as cell survival after 24 hrs by MTT assay. Format: functional, cell-based. Particulars: OE21, 24 h; call rule not given here. On the technique in general: Tetrazolium assays rely on reduction of a dye to a coloured formazan, in cell work by metabolically active cells.
A short description of data set [2]: Cytotoxicity against human HET-1A cells assessed as cell survival after 24 hrs by MTT assay. Format: cell-based.
Data set [3] is described as follows: Drug uptake in human OE21 endoplasmic reticulum at 9 uM after 5 mins by confocal microscopy. In kind it is ADME.
Data set [4] in a line: Drug uptake in human OE21 endoplasmic reticulum at 27 uM after 20 mins by confocal microscopy. In kind it is ADME.
A short description of data set [5]: Ratio of IC50 for cytotoxicity against human HET-1A cells to IC50 for cytotoxicity against human OE21 cells. Particulars: HET-1A cells and OE21 cells, read-out: Ratio IC50. Format: toxicity, cell-based.
Data set [6] is described as follows: Drug uptake in human OE21 endoplasmic reticulum assessed as fluorescence intensity at 18 uM after 20 mins to 2 hrs by confocal microscopy. In kind it is ADME.
Data set [7] is described as follows: Drug uptake in human HET-1A endoplasmic reticulum after 20 mins to 2 hrs by confocal microscopy. Format: ADME.
Data set [8] can be described thus: Solubility of the compound in phosphate buffer solution at pH7.4. Format: physicochemical. Particulars: pH 7.4.
A short description of data set [9]: Drug uptake in human HET-1A endoplasmic reticulum after 5 mins by confocal microscopy. Format: ADME.

For `Brc1ccc(-c2nc3c4cccnc4c4ncccc4c3[nH]2)cc1`, the results for the IC50 in [1] and in data set [2] were 0.77 µM and 3.15 µM, respectively. Moreover, the Drug uptake result in [3], in data set [4], in data set [6] and in [7] was “Active” throughout. Moreover, in data set [5], the selectivity ratio worked out at 4. The solubility result in data set [8] is recorded as “soluble”.
In the case of `C[Si](C)(C)C#Cc1ccc(-c2nc3c4cccnc4c4ncccc4c3[nH]2)cc1`, the Drug uptake result in [9], in [3], in data set [4], in data set [6] and in data set [7] was “Active” each time. In addition, the values for the IC50 in data set [1] and in data set [2] were 0.44 µM and 3.02 µM, respectively. For the same molecule, in data set [5], the selectivity ratio was found to be 7. Also, the solubility entry in data set [8] was “soluble”.
